{"source": "patent US20100113460A1", "about": "“Organic Compounds” (Givaudan SA, priority 2007, published 2010)"}
{"molecular_target": "T1, CYP2A13 (Homo sapiens, UniProt Q16696)", "T1 sequence (Q16696 1-494)": "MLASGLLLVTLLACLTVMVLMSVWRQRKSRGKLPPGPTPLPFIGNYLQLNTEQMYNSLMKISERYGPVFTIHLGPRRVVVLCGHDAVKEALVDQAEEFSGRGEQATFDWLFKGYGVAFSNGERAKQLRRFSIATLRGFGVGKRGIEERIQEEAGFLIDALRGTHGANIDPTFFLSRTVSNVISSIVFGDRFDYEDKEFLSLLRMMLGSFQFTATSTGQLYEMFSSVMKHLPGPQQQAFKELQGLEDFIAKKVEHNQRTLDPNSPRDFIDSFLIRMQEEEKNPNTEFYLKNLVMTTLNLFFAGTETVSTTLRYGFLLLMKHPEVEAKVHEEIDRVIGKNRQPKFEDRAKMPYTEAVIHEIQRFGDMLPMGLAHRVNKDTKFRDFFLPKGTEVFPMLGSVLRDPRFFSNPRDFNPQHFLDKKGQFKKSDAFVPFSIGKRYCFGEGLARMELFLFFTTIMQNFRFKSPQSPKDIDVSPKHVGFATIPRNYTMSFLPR", "assay": "CYP2A13 inhibition, coumarin to 7-hydroxy-coumarin (Umbelliferone) fluorescence assay in microsomes", "details": "not given", "units": {"IC50": "µM"}}
{"compound": "CCC=CCCC1(C)CCC(=O)O1", "note": "(mixture of isomers) [Compound ID 62, (E/Z)-5-(hex-3-enyl)-5-methyldihydrofuran-2(3H)-one]", "IC50": 12.5}
{"compound": "CCCCCC1=C(C)CCC1=O", "note": "[Compound ID 7, 2-pentyl-3-methylcyclopent-2-enone]", "IC50": 1.2}
{"compound": "CCCCCC12CC1(C)CCC2=O", "note": "(stereo not drawn) [Compound ID 8]", "IC50": 1.4}
{"compound": "CCCCCC1OC(=O)CC1C", "note": "(stereo not drawn) [Compound ID 12, 4-methyl-5-pentyldihydrofuran-2(3H)-one]", "IC50": 1.7}
{"compound": "c1nc2c(o1)CCCCCCCCC2", "note": "[Compound ID 14, 5,6,7,8,9,10,11,12-octahydro-4H-cycloundeca[d]oxazole]", "IC50": 2}
{"compound": "CC/C=C\\CC1C(=O)CCC1C", "note": "(stereo not drawn) [Compound ID 17]", "IC50": 2.8}
{"compound": "CCCCC/C=C/CC1CCCC1=O", "note": "(stereo not drawn) [Compound ID 18, (E)-2-(oct-2-enyl)cyclopentanone]", "IC50": 2.8}
{"compound": "CCCCCN1C(=O)CC[C@H]1C(=O)OCC", "note": "[Compound ID 19]", "IC50": 3}
{"compound": "CC/C=C\\CC1CCCC(=O)O1", "note": "(stereo not drawn) [Compound ID 22, (Z)-6-(pent-2-enyl)tetrahydro-2H-pyran-2-one]", "IC50": 3.3}
{"compound": "c1cnc2c(c1)CCCCCCCCCC2", "note": "[Compound ID 24, 5,6,7,8,9,10,11,12,13,14-decahydrocyclododeca[b]pyridine]", "IC50": 3.5}
{"compound": "CC/C=C\\C[C@@H]1C(=O)CC[C@@H]1CC(=O)OC", "note": "[Compound ID 25, (Z)-methyl 2-(3-oxo-2-(pent-2-enyl)cyclopentyl)acetate]", "IC50": 3.5}
{"compound": "c1ncc2c(n1)CCCCCCCC2", "note": "[Compound ID 26, 5,6,7,8,9,10,11,12-octahydrocyclodeca[d]pyrimidine]", "IC50": 3.7}
{"compound": "CCCCCCC1CCCC1=O", "note": "(stereo not drawn) [Compound ID 27, 2-hexylcyclopentanone]", "IC50": 4.2}
{"compound": "CCC1CCC2(CCC(=O)O2)CC1", "note": "(stereo not drawn) [Compound ID 29, 8-ethyl-1-oxaspiro[4.5]decan-2-one]", "IC50": 4.3}
{"compound": "CCCCCCC1=CCCC1=O", "note": "[Compound ID 30, 2-hexylcyclopent-2-enone]", "IC50": 4.5}
{"compound": "CCCCCCC1(C)CCC(=O)O1", "note": "(stereo not drawn) [Compound ID 31, 5-hexyl-5-methyldihydrofuran-2(3H)-one]", "IC50": 4.6}
{"compound": "CCCCCC1C(=O)CCC1C", "note": "(stereo not drawn) [Compound ID 32, 3-methyl-2-pentylcyclopentanone]", "IC50": 4.8}
{"compound": "c1nc2c([nH]1)CCCCCCCCC2", "note": "[Compound ID 35, 1,4,5,6,7,8,9,10,11,12-decahydrocycloundeca[d]imidazole]", "IC50": 5}
{"compound": "O=C1CCCCCCCCCCCN1", "note": "[Compound ID 36, azacyclotridecan-2-one]", "IC50": 5.2}
{"compound": "CCCCCC1C(=O)CCC1CC(=O)OC", "note": "(stereo not drawn) [Compound ID 37, methyl 2-(3-oxo-2-pentylcyclopentyl)acetate]", "IC50": 5.2}
{"compound": "c1cnc2c(n1)CCCCCCCCCC2", "note": "[Compound ID 42, 5,6,7,8,9,10,11,12,13,14-decahydrocyclododeca[b]pyrazine]", "IC50": 6.1}
{"compound": "c1nnc2n1CCCCCCCCCCC2", "note": "[Compound ID 43, 6,7,8,9,10,11,12,13,14,15-decahydro-5H-[1,2,4]triazolo[4,3-a][1]azacyclotridecine]", "IC50": 6.3}
{"compound": "O=C1CCC2CCCCC2O1", "note": "(stereo not drawn) [Compound ID 45, octahydrocoumarin]", "IC50": 6.6}
{"compound": "CCCCCCC1CCC(=O)O1", "note": "(stereo not drawn) [Compound ID 47, 5-hexyldihydrofuran-2(3H)-one]", "IC50": 7.2}
{"compound": "CCCCCCN1C(=O)CCC1C", "note": "(stereo not drawn) [Compound ID 48]", "IC50": 7.4}
{"compound": "CCOC(=O)CCCn1ccnc1", "note": "[Compound ID 49, ethyl 4-(1H-imidazol-1-yl)butanoate]", "IC50": 7.7}
{"compound": "CCCCCC1C(=O)C(C)CC1C(=O)OC", "note": "(stereo not drawn) [Compound ID 50, Methyl 4-methyl-3-oxo-2-pentylcyclopentanecarboxylate]", "IC50": 7.8}
{"molecular_target": "T1, CYP2A13", "assay": "CYP2A13 inhibition, coumarin to 7-hydroxy-coumarin (Umbelliferone) fluorescence assay in microsomes", "details": "read-out: CYP2A13 inhibitor activity IC50; substrate coumarin 0.006 mM, 60 min at 37° C.", "units": {"IC50": "µM"}}
{"compound": "CC(C)CCn1ccnc1", "note": "[Compound ID 39, 1-isopentyl-1H-imidazole]", "IC50": 5.6}
{"compound": "CC(C)=CCn1ccnc1", "note": "[Compound ID 40, 1-(3-methylbut-2-enyl)-1H-imidazole]", "IC50": 5.7}
{"compound": "CC/C=C/CCn1ccnc1", "note": "[Compound ID 46, (E)-1-(hex-3-enyl)-1H-imidazole]", "IC50": 6.8}
